Measurements: patent US12428389B2, “Diarylamide compound and application thereof” (Sunshine Lake Pharma Co., Ltd., priority 2019, dated 2025)
Where two headings read alike, the source gives them in different places.

Columns and labels:
UT-B [1] = biological target: T1, UT-B (Rattus norvegicus, UniProt P97689); assay: erythrocyte lysis model, rat erythrocytes; assay type: cell-based, rats
T1 construct: endogenous in cells; host or cells: erythrocytes of SD rats
T1 sequence (P97689 1-384): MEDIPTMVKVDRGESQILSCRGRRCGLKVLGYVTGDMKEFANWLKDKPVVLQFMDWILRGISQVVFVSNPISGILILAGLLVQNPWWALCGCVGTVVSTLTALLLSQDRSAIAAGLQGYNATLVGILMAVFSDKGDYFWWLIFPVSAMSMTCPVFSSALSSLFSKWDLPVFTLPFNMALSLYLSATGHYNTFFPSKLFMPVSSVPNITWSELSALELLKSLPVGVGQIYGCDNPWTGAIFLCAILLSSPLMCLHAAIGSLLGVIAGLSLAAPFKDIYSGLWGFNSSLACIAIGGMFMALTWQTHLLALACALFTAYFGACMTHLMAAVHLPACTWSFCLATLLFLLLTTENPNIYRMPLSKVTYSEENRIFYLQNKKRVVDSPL
Experimental: (§1) Erythrocyte lysis rate was calculated:
(§2) The formula for calculating the lysis rate percentage of erythrocytes, wherein Atest was the absorbance value of the test well, Aneg was the absorbance value of the negative control well, and Apos was the absorbance value of the positive control well. Erythrocyte lysis rate was calculated by measuring absorption at a wavelength of 710 nm.
(§3) The erythrocytes of three species of human, rats (SD rats) and mice (C57 mice) were taken, and urea transporter inhibitors were preliminarily screened from the above screening compound library by using the erythrocyte urea transporter inhibitor screening model.

UT-B [2] = biological target: T2, UT-B (Mus musculus, UniProt Q8VHL0); assay: erythrocyte lysis model, mouse erythrocytes; assay type: cell-based; settings: concentration when the erythrocyte lysis rate of mice was 50%
T2 construct: endogenous in cells; host or cells: erythrocytes of C57 mice
T2 sequence (Q8VHL0 1-384): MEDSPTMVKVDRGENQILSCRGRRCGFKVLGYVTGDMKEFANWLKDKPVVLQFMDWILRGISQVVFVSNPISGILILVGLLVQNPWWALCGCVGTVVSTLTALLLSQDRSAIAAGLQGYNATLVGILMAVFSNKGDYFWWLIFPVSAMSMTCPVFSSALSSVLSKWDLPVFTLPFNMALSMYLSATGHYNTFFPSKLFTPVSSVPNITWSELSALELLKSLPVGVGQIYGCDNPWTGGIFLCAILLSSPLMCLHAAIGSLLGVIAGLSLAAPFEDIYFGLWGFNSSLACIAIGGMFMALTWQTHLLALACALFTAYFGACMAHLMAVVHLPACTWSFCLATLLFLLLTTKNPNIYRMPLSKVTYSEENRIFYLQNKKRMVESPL
Experimental: as §1, §2, §3

human UT-B = biological target: T3, human UT-B (Homo sapiens, UniProt Q13336); assay: erythrocyte lysis model, human erythrocytes; assay type: cell-based
T3 construct: endogenous in cells; host or cells: human erythrocytes
T3 sequence (Q13336 1-389): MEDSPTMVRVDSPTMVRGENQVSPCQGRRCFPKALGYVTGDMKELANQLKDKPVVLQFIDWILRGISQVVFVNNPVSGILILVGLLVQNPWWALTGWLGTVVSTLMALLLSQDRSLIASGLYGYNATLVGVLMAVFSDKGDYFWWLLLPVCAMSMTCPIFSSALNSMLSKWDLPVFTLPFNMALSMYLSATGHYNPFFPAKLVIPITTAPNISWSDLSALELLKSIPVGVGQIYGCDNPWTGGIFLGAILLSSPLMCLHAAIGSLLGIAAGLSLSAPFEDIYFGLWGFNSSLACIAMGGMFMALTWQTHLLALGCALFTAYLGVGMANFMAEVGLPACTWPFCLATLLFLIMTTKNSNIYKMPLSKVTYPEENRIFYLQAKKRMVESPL
Experimental: as §1, §2, §3

[3] = concentration when the erythrocyte lysis rate of rats was 50%, read-out: IC50 rats
[4] = class of the IC50 to human UT-B, read-out: Activity level
[5] = concentration when the erythrocyte lysis rate of human was 50%, read-out: IC50 human

Row | IC50 (UT-B [1]; [3]) [nM] | IC50 (UT-B [2]) [µM] | IC50 (human UT-B; [4]) [µM] | IC50 (human UT-B; [5]) [µM] | Molecule | IC50 (UT-B [1]) [nM] | IC50 (human UT-B; Activity level, class of the IC50 to human UT-B) [µM] | IC50 (human UT-B; IC50 human, concentration when the erythrocyte lysis rate of human was 50%) [µM]
1 | 1090 | 2.61 | < 10 | 0.54 | O=C(NCCN1CCOCC1)c1cccc(NC(=O)c2ccc([N+](=O)[O-])o2)c1 [Example 61, N-(3-((2-morpholinylethyl)carbamoyl)phenyl)-5-nitrofuran-2-carboxamide] |  |  | 
2 | 1210 | 5.41 | < 10 | 0.88 | CCNC(=O)c1cccc(NC(=O)c2ccc([N+](=O)[O-])o2)c1 [Example 55, N-(3-(ethylcarbamoyl)phenyl)-5-nitrofuran-2-carboxamide] |  |  | 
3 | 4810 | 6.39 | < 10 | 0.37 | ethyl 2-acetamido-5-(5-nitrofuran-2-carboxamide) benzoate [Example 75] |  |  | 
4 | 1800 | 10.5 | < 10 | 3.58 | Nc1cccc(NC(=O)c2ccc([N+](=O)[O-])o2)c1 [Example 34, N-(3-aminophenyl)-5-nitrofuran-2-carboxamide] |  |  | 
5 | 7810 | 11.5 | < 10 | 1.63 | CCOC(=O)c1cc(NC(=O)c2ccc([N+](=O)[O-])o2)[nH]n1 [Example 77, ethyl 5-(5-nitrofuran-2-carboxamide)-1H-pyrazole-3-carboxylate] |  |  | 
6 | 670 | 2.39 | < 10 | 0.91 | O=C(Nc1cccc(O)c1)c1ccc([N+](=O)[O-])o1 [Example 32, N-(3-hydroxyphenyl)-5-nitrofuran-2-carboxamide] |  |  | 
7 | 3800 | 43.8 | < 10 | 3.62 | O=C(Nc1ccccc1F)c1ccc([N+](=O)[O-])o1 [Example 35, N-(2-fluorophenyl)-5-nitrofuran-2-carboxamide] |  |  | 
8 | 1130 | 2.66 | < 10 | 2.61 | CNC(=O)c1cc(NC(=O)c2ccc([N+](=O)[O-])o2)ccc1O [Example 67, N-(4-hydroxy-3-methylcarbomoylphenyl)-5-nitrofuran-2-carboxamide] |  |  | 
9 | 450 | 2.3 | < 10 | 0.47 | CCOC(=O)c1cccc(NC(=O)c2ccc([N+](=O)[O-])o2)c1 [Example 42, Ethyl 3-(5-nitrofuran-2-carboxamido)benzoate] |  |  | 
10 | 1360 | 1.09 | < 10 | 0.22 | O=C(Nc1cc[nH]n1)c1ccc([N+](=O)[O-])o1 [Example 20, N-(1H-pyrazol-5-yl)-5-nitrofuran-2-carboxamide] |  |  | 
11 |  | 15 | > 80 | > 80 | CCOC(=O)c1c[nH]nc1NC(=O)c1ccc([N+](=O)[O-])o1 [Example 76, ethyl 5-(5-nitrofuran-2-carboxamide)-1H-pyrazole-4-carboxylate] |  |  | 
12 | 1300 | 27.2 | < 10 | 6.61 | CN(C)CCC(=O)Nc1ccc(NC(=O)c2ccc([N+](=O)[O-])o2)cc1 [Example 73, N-(4-(3-dimethylamino)propionylaminophenyl)-5-nitrofuran-2-carboxamide] |  |  | 
13 | 4110 | 17.1 | < 10 | 4.87 | COc1ccccc1NC(=O)c1ccc([N+](=O)[O-])o1 [Example 29, N-(2-methoxyphenyl)-5-nitrofuran-2-carboxamide] |  |  | 
14 | 210 | 0.74 | < 10 | 3.68 | CN(C)CCNC(=O)c1cccc(NC(=O)c2ccc([N+](=O)[O-])o2)c1 [Example 60, N-(3-((2-dimethylaminoethyl)carbamoyl)phenyl)-5-nitrofuran-2-carboxamide] |  |  | 
15 | 20100 | 18.7 | < 10 | 2.53 | CC(=O)Nc1ccc(NC(=O)c2ccc([N+](=O)[O-])s2)cc1 [Example 9, N-(4-acetamidophenyl)-5-nitrothiophene-2-carboxamide] |  |  | 
16 | 15 | 0.29 | < 10 | 0.023 | CNC(=O)c1cccc(NC(=O)c2ccc([N+](=O)[O-])o2)c1 [Example 53, N-(3-(methylcarbamoyl)phenyl)-5-nitrofuran-2-carboxamide] |  |  | 
17 | 1760 | 1.23 | < 10 | 1.7 | CNC(=O)c1cc(NC(=O)c2ccc([N+](=O)[O-])o2)ccc1C [Example 63, N-(4-methyl-3-methylcarbamoylphenyl)-5-nitrofuran-2-carboxamide] |  |  | 
18 | 870 | 2.22 | < 10 | 3.29 | CNC(=O)c1cc(F)cc(NC(=O)c2ccc([N+](=O)[O-])o2)c1 [Example 66, N-(5-fluoro-3-methylcarbomoylphenyl)-5-nitrofuran-2-carboxamide] |  |  | 
19 | 1240 | 9.59 | < 10 | 3.01 | CN(C)CCNCC(=O)Nc1ccc(NC(=O)c2ccc([N+](=O)[O-])o2)cc1 [Example 74, N-(4-((2-dimethylamino)ethylamino)acetamidophenyl)-5-nitrofuran-2-carboxamide] |  |  | 
20 | 1100 | 8.51 | < 10 | 2.21 | Cn1ccc(NC(=O)c2ccc([N+](=O)[O-])o2)n1 [Example 21, N-(1-methyl-1H-pyrazol-3-yl)-5-nitrofuran-2-carboxamide] |  |  | 
21 | 570 | 5.41 | < 10 | 1.25 | CN(C)CC(=O)Nc1ccc(NC(=O)c2ccc([N+](=O)[O-])o2)cc1 [Example 71, N-(4-(2-dimethylamino)acetamidophenyl)-5-nitrofuran-2-carboxamide] |  |  | 
22 | 34300 | 5.69 | 20 to 80 | 22.8 | CNC(=O)c1cc(NC(=O)c2ccc([N+](=O)[O-])o2)cc(C(=O)NC)c1 [Example 68, N^1,N^3-dimethyl-5-(5-nitrofuran-2-carboxamide) isophthalamide] |  |  | 
23 | 900 | 2.63 | < 10 | 1.77 | O=C(NC1CCCCC1)c1cccc(NC(=O)c2ccc([N+](=O)[O-])o2)c1 [Example 58, N-(3-(cyclohexylcarbamoyl)phenyl)-5-nitrofuran-2-carboxamide] |  |  | 
24 | 240 | 0.52 | < 10 | 0.13 | CNC(=O)c1cccc(NC(=O)c2ccc(C(C)=O)o2)c1 [Example 78, 3-(5-acetyl-2-furoyl)carbamamide] |  |  | 
25 | 200 | 0.31 | < 10 | 0.74 | CN(C)C(=O)c1cccc(NC(=O)c2ccc([N+](=O)[O-])o2)c1 [Example 54, N-(3-(dimethylcarbamoyl)phenyl)-5-nitrofuran-2-carboxamide] |  |  | 
26 | 1050 | 5.81 | < 10 | 2.91 | O=C(Nc1cccc(Cl)c1)c1ccc([N+](=O)[O-])o1 [Example 38, N-(3-chlorophenyl)-5-nitrofuran-2-carboxamide] |  |  | 

Row | Molecule | IC50 (UT-B [1]; [3]) [nM] | IC50 (UT-B [2]) [µM] | IC50 (human UT-B; [4]) [µM] | IC50 (human UT-B; [5]) [µM] | IC50 (UT-B [1]) [nM] | IC50 (human UT-B; Activity level, class of the IC50 to human UT-B) [µM] | IC50 (human UT-B; IC50 human, concentration when the erythrocyte lysis rate of human was 50%) [µM]
27 | O=C(Nc1ccc(NC(=O)c2ccc([N+](=O)[O-])o2)cc1)c1ccc([N+](=O)[O-])o1 [Example 52, N,N′-(1,4-phenylene)bis(5-nitrofuran-2-carboxamide)] |  | 0.52 |  |  | 270 | < 10 | 0.65
